From PMC4081560 (PLoS ONE, 2014)
Values joined by “and” are separate entries in the source; they are usually repeats but may differ in a detail not shown here. Identical values can stand only once. Like-named read-outs stand apart in the source and are kept apart here. Marks after values point to notes of the source that are not given here.

Assays:
Set-up in all cases: species or system DBA/2 mice
Details in all cases: mouse, in vivo
[1] = system: oseltamivir-resistant K/2785 virus
[2] = system: oseltamivir-resistant K/2785 virus; remark: listed apart in the source
[3] = system: oseltamivir-resistant K/2785 virus; remark: listed apart in the source

SMILES | Viral titers in lungs ± SD [1] | MDD ± SD [2] | Survival/total [2] | Synergism (MacSynergy II) [2] [%] | MDD ± SD (mean day of death prior to 14 dpi) [3] | Survival/total [3] | infected mice saved from death [3]
CCC(CC)[C@H](NC(C)=O)[C@@H]1[C@H](O)[C@@H](C(=O)O)C[C@H]1N=C(N)N [Peramivir] | 7.34±0.17 log10(PFU/ml/g) and 6.30±0.13 log10(PFU/ml/g) and 7.13±0.09 log10(PFU/ml/g) and 6.29±0.27 log10(PFU/ml/g) and 7.29±0.15 log10(PFU/ml/g) and 6.55±0.14 log10(PFU/ml/g) | 9.8 ± 1.5 days and 10.1 ± 1.2 days and 10.6 ± 0.9 days | 0/10 (00.0%) and 2/10 (20.0%) and 5/10 (50.0%)* | 0 | 10.1 ± 1.1 days and 10.2 ± 0.4 days and 10.5 ± 2.1 days and 11.0 ± 1.4 days | 0/7 (0.0%) and 1/7 (14.3%) and 5/7 (71.4%)* | 
NC(=O)c1nc(F)cnc1O [Favipiravir, 6-fluoro-3-hydroxy-2-pyrazinecarboxamide] | 6.95±0.14 log10(PFU/ml/g) and 5.75±0.19 log10(PFU/ml/g) and 7.31±0.01 log10(PFU/ml/g) and 6.88±0.12 log10(PFU/ml/g) | 10.6 ± 0.9 days and 10.7 ± 0.6 days and 9.4 ± 0.5 days | 5/10 (50.0%)* and 8/10 (80.0%)*** and 3/10 (30.0%) | 0 | 9.8 ± 0.8 days and 10.0 ± 0.0 days and 11 days | 2/7 (28.6%) and 4/7 (57.1%) and 6/7 (85.7%)** and 7/7 (100.0%)*** | more than 80%
